Laboratory results taken from ChEMBL document CHEMBL5143608, “Peptide-based long-acting co-agonists of GLP-1 and cholecystokinin 1 receptors as novel anti-diabesity agents” (Eur J Med Chem, 2022).
Active and inactive are the calls of the source. The calls are words filed in the database; no cut-off is given here.

What was measured:
[1] = system: Mus musculus; experiment: Anti-diabesity activity against db/db mouse assessed as reduction in fasting blood glucose level at 25 nmol/kg, sc administered every 2 days for 12 weeks; format: functional, organism-based
[2] = target: T1, CCK2R (gastrin/cholecystokinin type B receptor) (Homo sapiens, UniProt P32239); experiment: Agonist activity at human CCK2R expressed in HEK293 cells assessed as ERK1/2 phosphorylation incubated for 5 mins by AlphaScreen assay; format: functional, cell-based; details: human, HEK293 cells expressing human CCK2R
T1 sequence (P32239 whole entry): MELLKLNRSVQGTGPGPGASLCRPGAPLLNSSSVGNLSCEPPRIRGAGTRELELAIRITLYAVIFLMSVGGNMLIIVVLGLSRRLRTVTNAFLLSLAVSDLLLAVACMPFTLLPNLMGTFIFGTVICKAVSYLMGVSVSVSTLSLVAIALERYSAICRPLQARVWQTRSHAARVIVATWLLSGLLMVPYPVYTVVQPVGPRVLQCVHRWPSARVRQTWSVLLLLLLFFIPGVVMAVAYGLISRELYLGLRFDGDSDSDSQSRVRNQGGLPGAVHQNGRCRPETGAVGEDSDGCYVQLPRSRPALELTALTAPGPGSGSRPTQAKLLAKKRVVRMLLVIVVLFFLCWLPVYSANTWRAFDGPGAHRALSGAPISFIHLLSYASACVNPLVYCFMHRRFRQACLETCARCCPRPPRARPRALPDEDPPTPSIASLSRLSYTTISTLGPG

[3] = Cmax in Sprague-Dawley rat at 25 nmol/kg, iv by LC-MS/MS analysis; format: ADME, organism-based; parameters: dose 25 nmol/kg, route iv; details: in vivo
[4] = Half life in Sprague-Dawley rat at 25 nmol/kg, iv by LC-MS/MS analysis; format: ADME, organism-based; details: in vivo
[5] = AUC (0 to infinity) in Sprague-Dawley rat at 25 nmol/kg, iv by LC-MS/MS analysis; format: ADME, organism-based; parameters: time infinity, dose 25 nmol/kg, route iv; details: in vivo
[6] = AUC (0 to infinity) in Sprague-Dawley rat at 25 nmol/kg, sc by LC-MS/MS analysis; format: ADME, organism-based; parameters: time infinity, dose 25 nmol/kg, route sc; details: in vivo
[7] = system: Mus musculus; experiment: Hypoglycemic activity in db/db mouse assessed as reduction in glucose excursion at 25 nmol/kg, ip administered 30 min before oral glucose administration and measured upto 120 mins by OGTT; format: functional, organism-based
[8] = system: Mus musculus; experiment: Insulinotropic activity in db/db mouse assessed as elevation of plasma insulin level at 25 nmol/kg, ip administered 30 min before oral glucose administration and measured upto 60 mins by ELISA; format: functional, organism-based; details: time <= 90.0 min
[9] = system: Mus musculus; experiment: Anti-diabesity activity in DIO C57BL/6 mouse assessed as reduction in body weight at 25 nmol/kg, sc administered every 2 days for 10 days; format: functional; details: C57BL/6, 240 h, time 10 day
[10] = system: Mus musculus; experiment: Anti-diabesity activity in DIO C57BL/6 mouse assessed as improvement in insulin sensitivity at 25 nmol/kg, sc administered every 2 days for 10 days by insulin tolerance test; format: functional, organism-based; details: time 10.0 day
[11] = system: Mus musculus; experiment: Anti-diabesity activity in DIO C57BL/6 mouse assessed as reduction in body weight at 100 nmol/kg, sc administered once daily for 7 days; format: functional; details: C57BL/6, 168 h, time 7 day
[12] = system: Mus musculus; experiment: Anti-diabesity activity in db/db mouse assessed as decrease in fasted blood glucose level at 100 nmol/kg, sc administered once daily for 7 days; format: functional, organism-based; details: time 7.0 day
[13] = system: Mus musculus; experiment: Anti-diabesity activity against DIO C57BL/6 mouse assessed as decrease in fat mass at 25 nmol/kg, sc administered every 2 days for 3 weeks; format: functional, organism-based; details: time 21.0 day
[14] = system: Mus musculus; experiment: Anti-diabesity activity against DIO C57BL/6 mouse assessed as reduction in fasted blood glucose level at 25 nmol/kg, sc administered every 2 days for 3 weeks; format: functional, organism-based; details: time 21.0 day
[15] = system: Mus musculus; experiment: Anti-diabesity activity against db/db mouse assessed as reduction in body weight at 25 nmol/kg, sc administered every 2 days for 3 weeks; format: functional, organism-based; details: time 21.0 day
[16] = system: Mus musculus; experiment: Anti-diabesity activity against db/db mouse assessed as increase in islet number at 25 nmol/kg, sc administered every 2 days for 3 weeks by H and E staining based analysis; format: functional, organism-based; details: time 21.0 day
[17] = system: Mus musculus; experiment: Anti-diabesity activity against db/db mouse assessed as enhanced islets insulin content at 25 nmol/kg, sc administered every 2 days for 3 weeks by immunohistochemistry staining; format: functional, organism-based; details: time 21.0 day
[18] = system: Mus musculus; experiment: Anti-diabesity activity in db/db mouse assessed as reduction in body weight at 100 nmol/kg, sc administered once daily for 7 days; format: functional, organism-based; details: time 7.0 day
[19] = Renal toxicity in db/db mouse assessed as blood urea nitrogen level at 100 nmol/kg, sc administered once daily for 7 days; format: organism-based; details: in vivo, 168 h, time 7 day
[20] = Hepatotoxicity in db/db mouse assessed as aspartate aminotransferase level in plasma at 100 nmol/kg, sc administered once daily for 7 days; format: toxicity, organism-based; details: in vivo, 168 h, time 7 day
[21] = system: Rattus norvegicus; experiment: Anorectic activity in Sprague-Dawley rat assessed as reduction in food intake at 25 nmol/kg,ip measured after 24 hrs; format: functional
[22] = Toxicity in Sprague-Dawley rat assessed as induction of Pica behaviour by measuring kaolin intake at 25 nmol/kg, ip measured after 24 hrs; format: organism-based; details: in vivo
[23] = system: Mus musculus; experiment: Anti-diabesity activity against DIO C57BL/6 mouse assessed as reduction in leptin level in plasma at 25 nmol/kg, sc administered every 2 days for 3 weeks by ELISA; format: functional, organism-based; details: time 21.0 day
[24] = Renal toxicity in DIO C57BL/6 mouse assessed as blood urea nitrogen level at 25 nmol/kg, sc administered every 2 days for 3 weeks; format: organism-based; details: in vivo, 504 h, time 21 day
[25] = Pancreatic insult activity in DIO C57BL/6 mouse assessed as amylase level in serum at 25 nmol/kg, sc administered every 2 days for 3 weeks; format: toxicity, organism-based; details: in vivo, 504 h, time 21 day
[26] = system: Mus musculus; experiment: Anti-diabesity activity against db/db mouse assessed as improvement in glucose tolerance level at 25 nmol/kg, sc administered every 2 days for 6 weeks followed by saline treatment for 6 weeks and measured during first 6 weeks by OGTT; format: functional, organism-based
[27] = system: Mus musculus; experiment: Anti-diabesity activity against db/db mouse assessed as reduction in fasting blood glucose level at 25 nmol/kg, sc administered every 2 days for 6 weeks followed by saline treatment for 6 weeks and measured during first 6 weeks; format: functional, organism-based
[28] = system: Mus musculus; experiment: Anti-diabesity activity against db/db mouse assessed as improvement in glucose tolerance level at 25 nmol/kg, sc administered every 2 days for 6 weeks followed by saline treatment for 6 weeks and measured during second 6 weeks by OGTT; format: functional, organism-based
[29] = system: Mus musculus; experiment: Anti-diabesity activity against db/db mouse assessed as reduction in HbA1c level at 25 nmol/kg, sc administered every 2 days for 6 weeks followed by saline treatment for 6 weeks and measured during second 6 weeks; format: functional, organism-based
[30] = system: Mus musculus; experiment: Anti-diabesity activity against db/db mouse assessed as increase in insulin sensitivity by measuring reduction in plasma insulin level at 25 nmol/kg, sc administered every 2 days for 12 weeks by ELISA; format: functional, organism-based
[31] = system: Mus musculus; experiment: Anti-diabesity activity against db/db mouse assessed as increase in pancreas mass at 25 nmol/kg, sc administered every 2 days for 12 weeks; format: functional, organism-based
[32] = Renal toxicity in db/db mouse assessed as creatinine level in serum at 25 nmol/kg, sc administered every 2 days for 12 weeks; format: organism-based; details: in vivo, 2016 h
[33] = Renal toxicity in db/db mouse assessed as blood urea nitrogen level in serum at 25 nmol/kg, sc administered every 2 days for 12 weeks; format: organism-based; details: in vivo, 2016 h

| Cmax [3] [ng/mL] | half-life [4] [h] | AUC(0-inf) [5] [ng·h/mL] | AUC(0-inf) [6] [ng·h/mL] | SMILES | Activity [1] | EC50 at 5 min [2] [nM] | Activity [7] | Activity [8] | inhibition in vivo at 0.025 µmol/kg [9] [%] | Activity [10] | inhibition in vivo at 0.1 µmol/kg [11] [%] | Activity [12] | Activity [13] | Activity [14] | Activity [15] | Activity [16] | Activity [17] | Activity [18] | Activity [19] | Activity [20] | other results |
| --- | --- | --- | --- | --- | --- | --- | --- | --- | --- | --- | --- | --- | --- | --- | --- | --- | --- | --- | --- | --- | --- |
| 1680 | 6.3 | 6050 | 5510 | CCCC[C@H](NC(=O)[C@H](Cc1ccc(CS(=O)(=O)O)cc1)NC(=O)[C@H](CC(=O)O)NC(=O)COCCOCCNC(=O)COCCOCCNC(=O)[C@H](CCCNC(=N)N)NC(=O)CNC(=O)[C@H](CCCCN)NC(=O)[C@@H](NC(=O)[C@H](CC(C)C)NC(=O)[C@H](Cc1c[nH]c2ccccc12)NC(=O)[C@H](C)NC(=O)[C@@H](NC(=O)[C@H](Cc1ccccc1)NC(=O)[C@H](CCC(=O)O)NC(=O)[C@H](CCCCNC(=O)COCCOCCNC(=O)COCCOCCNC(=O)CC[C@H](NC(=O)CCCCCCCCCCCCCCCCC(=O)O)C(=O)O)NC(=O)[C@H](C)NC(=O)[C@H](C)NC(=O)[C@H](CCC(N)=O)NC(=O)CNC(=O)[C@H](CCC(=O)O)NC(=O)[C@H](CC(C)C)NC(=O)[C@H](Cc1ccc(O)cc1)NC(=O)[C@H](CO)NC(=O)[C@H](CO)NC(=O)[C@@H](NC(=O)[C@H](CC(=O)O)NC(=O)[C@H](CO)NC(=O)[C@@H](NC(=O)[C@H](Cc1ccccc1)NC(=O)[C@@H](NC(=O)CNC(=O)[C@H](CCC(=O)O)NC(=O)[C@H](C)NC(=O)[C@@H](N)Cc1cnc[nH]1)[C@@H](C)O)[C@@H](C)O)C(C)C)[C@@H](C)CC)C(C)C)C(=O)NCC(=O)N[C@@H](Cc1c[nH]c2ccccc12)C(=O)N[C@@H](CCCC)C(=O)N(C)[C@H](CC(=O)O)C(=O)N(C)[C@@H](Cc1ccccc1)C(N)=O | Active | > 100 | Active | Active | 17.9 | Active | 19.2 | Active | Active | Active | Active | Active | Active | Active | Non-Toxic | Non-Toxic | inhibition in vivo at 0.025 µmol/kg [21]: 28%; Activity [22]: Non-Toxic; Activity [23]: Active; Activity [24]: Non-Toxic; Activity [25]: Non-Toxic; Activity [26]: Active; Activity [27]: Active; Activity [28]: Active; Activity [29]: Active; Activity [30]: Active; Activity [31]: Active; Activity [32]: Non-Toxic; Activity [33]: Non-Toxic |
| 1660 | 9.1 | 17600 | 15200 | CCCC[C@H](NC(=O)[C@H](Cc1ccc(CS(=O)(=O)O)cc1)NC(=O)[C@H](CC(=O)O)NC(=O)COCCOCCNC(=O)COCCOCCNC(=O)[C@H](CCCCN)NC(=O)CNC(=O)[C@H](CCCCN)NC(=O)[C@@H](NC(=O)[C@H](CC(C)C)NC(=O)[C@H](Cc1c[nH]c2ccccc12)NC(=O)[C@H](CCC(=O)O)NC(=O)[C@@H](NC(=O)[C@H](Cc1ccccc1)NC(=O)[C@H](CCC(=O)O)NC(=O)[C@H](CCCCNC(=O)COCCOCCNC(=O)COCCOCCNC(=O)CC[C@H](NC(=O)CCCCCCCCCCCCCCCCC(=O)O)C(=O)O)NC(=O)[C@H](C)NC(=O)[C@H](C)NC(=O)[C@H](CCC(=O)O)NC(=O)[C@H](CCC(=O)O)NC(=O)[C@H](CCC(=O)O)NC(=O)[C@H](CC(C)C)NC(=O)[C@@H](NC(=O)[C@H](CCC(=O)O)NC(=O)[C@@H](NC(=O)[C@@H](NC(=O)[C@H](CC(=O)O)NC(=O)[C@H](CC(N)=O)NC(=O)[C@@H](NC(=O)[C@H](Cc1ccc(O)cc1)NC(=O)[C@@H](NC(=O)CNC(=O)[C@H](CCC(=O)O)NC(=O)C(C)(C)NC(=O)[C@@H](N)Cc1cnc[nH]1)[C@@H](C)O)[C@@H](C)O)C(C)C)[C@@H](C)O)[C@@H](C)O)[C@@H](C)CC)[C@@H](C)CC)C(=O)NCC(=O)N[C@@H](Cc1c[nH]c2ccccc12)C(=O)N[C@@H](CCCC)C(=O)N(C)[C@H](CC(=O)O)C(=O)N(C)[C@@H](Cc1ccccc1)C(N)=O | Active | > 100 | Active | Active | 21.2 | Active | 21.4 | Active | Active | Active | Active | Active | Active | Active | Non-Toxic | Non-Toxic | inhibition in vivo at 0.025 µmol/kg [21]: 33%; Activity [22]: Non-Toxic; Activity [23]: Active; Activity [24]: Non-Toxic; Activity [25]: Non-Toxic; Activity [26]: Active; Activity [27]: Active; Activity [28]: Active; Activity [29]: Active; Activity [30]: Active; Activity [31]: Active; Activity [32]: Non-Toxic; Activity [33]: Non-Toxic |
